Results on one compound are retold here after patent US20220387276A1, “Composition Comprising Oils, Free Fatty Acids And Squalene” (Clariant International Ltd., priority 2021, published 2022).

Each structure is given as a SMILES string.

The data set is classed as physicochemical. How it is done: The oxidative stability at 90° C. was determined according to DIN EN ISO 6886 for the blend of Example 1 and compared with the oxidative stability of squalene.

With `CC(C)=CCC/C(C)=C/CC/C(C)=C/CC/C=C(\C)CC/C=C(\C)CCC=C(C)C` [squalene], the “Induction time (oxidative stability)” value was found to be 4.84 h.
